Some test systems named below: ACHN renal; TK-10 renal; SW-620 colon; HT29 colon; A549 NSCLC; LOX IMVI melanoma; MDA-MB-435; NCI-H522 lung; OVCAR-3 ovarian; SK-MEL-2 melanoma.
What all share (assay): growth of human tumour cells (NCI), 48 h

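Where inhibition never reached the appropriate level, the endpoint shown equals the highest concentration tested. Otherwise, values were interpolated linearly from a five-concentration, 48-hour dose response in 96-well plates. The concentration for 50% growth inhibition is given as GI50. TGI denotes the concentration required for complete inhibition of growth.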 Bounds are passed on as bounds.

For `COC(=O)c1oc2c(C(=O)/C=C/c3ccc(OC)cc3)c(OCCN(C)C)ccc2c1C`, the GI50 in the assay with ACHN renal is 5.9 µM; in the assay with TK-10 renal it was 9.79 µM; in the assay on SW-620 colon, 2.4 µM; in the assay on HT29 colon, 3.72 µM; in the assay on A549 NSCLC it was 5.08 µM; in the assay with LOX IMVI melanoma it was 4.52 µM. Further, the GI50 is 4.57 µM with MDA-MB-435, 5.39 µM with NCI-H522 lung, 7.19 µM with OVCAR-3 ovarian and 12.4 µM in the assay on SK-MEL-2 melanoma. Further, the TGI with ACHN renal was found to be 19.5 µM; in the assay with TK-10 renal, 23 µM; in the assay with SW-620 colon, 7.43 µM; in the assay on HT29 colon, 9.83 µM; in the assay with A549 NSCLC, 23 µM; with LOX IMVI melanoma, 17 µM. Besides, the TGI worked out at 16.3 µM with MDA-MB-435, 20.2 µM with NCI-H522 lung, 21.3 µM in the assay on OVCAR-3 ovarian and 28.8 µM in the assay on SK-MEL-2 melanoma.

With `C=CCC(N[C@@H](CO)c1ccccc1)c1cn(C(=O)OCC)c2ccccc12` (stereo not given in full), the GI50 in the assay with ACHN renal was 24.3 µM; with TK-10 renal, 23.2 µM; in the assay on SW-620 colon it was 28.6 µM; in the assay with HT29 colon it was 23.3 µM; in the assay on A549 NSCLC, 34.7 µM; with LOX IMVI melanoma, 16.7 µM. The GI50 in the assay with MDA-MB-435 is 22.7 µM; in the assay with NCI-H522 lung it was 21.9 µM; in the assay on OVCAR-3 ovarian, 15.8 µM; in the assay with SK-MEL-2 melanoma, 33.7 µM. The TGI in the assay with ACHN renal is 63 µM; in the assay with TK-10 renal, 73.6 µM; in the assay with SW-620 colon, above 100 µM; in the assay with HT29 colon it was 62.7 µM; with A549 NSCLC, above 100 µM; with LOX IMVI melanoma it was 32.2 µM. The TGI was 55.9 µM with MDA-MB-435, 46.8 µM in the assay with NCI-H522 lung, 31.7 µM in the assay with OVCAR-3 ovarian and above 100 µM in the assay with SK-MEL-2 melanoma.

Take `COC(=O)c1cc2c3ccccc3n3c2c(n1)-c1[nH]c2ccccc2c(=O)c1C3`: the GI50 in the assay with ACHN renal is 33.6 µM; in the assay with TK-10 renal it was 23 µM; in the assay with SW-620 colon, above 100 µM; with HT29 colon, above 100 µM; in the assay on A549 NSCLC it was above 100 µM; with LOX IMVI melanoma it was above 100 µM. For the same compound, the GI50 is above 100 µM in the assay with MDA-MB-435, 66.3 µM in the assay with NCI-H522 lung, above 100 µM in the assay on OVCAR-3 ovarian and 36.4 µM in the assay on SK-MEL-2 melanoma. In addition, the TGI in the assay on ACHN renal was above 100 µM; in the assay with TK-10 renal it was 45.9 µM; in the assay with SW-620 colon, above 100 µM; with HT29 colon, above 100 µM; with A549 NSCLC, above 100 µM; in the assay on LOX IMVI melanoma, above 100 µM. Moreover, the TGI in the assay on MDA-MB-435, in the assay on NCI-H522 lung, in the assay with OVCAR-3 ovarian and with SK-MEL-2 melanoma was above 100 µM each time.

For `Cn1cc(-c2cnn3c(N)c(Br)c(C4CCCNC4)nc23)cn1` (stereo not given), the GI50 in the assay with ACHN renal is 0.417 µM; with TK-10 renal it was 3.69 µM; in the assay with SW-620 colon, 15.7 µM; with HT29 colon, 4.19 µM; with A549 NSCLC, 17.3 µM; in the assay on LOX IMVI melanoma, 2.71 µM. Besides, the GI50 with MDA-MB-435 is 0.754 µM; in the assay on NCI-H522 lung it was 24.5 µM; with OVCAR-3 ovarian, 16 µM; with SK-MEL-2 melanoma, 17.1 µM. The TGI was above 100 µM in the assay on ACHN renal; above 83 µM with TK-10 renal; above 68.6 µM with SW-620 colon; above 73 µM in the assay on HT29 colon; above 100 µM with A549 NSCLC; 18.9 µM in the assay on LOX IMVI melanoma. In addition, the TGI in the assay with MDA-MB-435 was above 57.8 µM; in the assay on NCI-H522 lung, above 100 µM; with OVCAR-3 ovarian it was above 88.9 µM; with SK-MEL-2 melanoma, 63.7 µM.

For the compound `O=C(O)C1[O][Sb][O]C(C(=O)O)C1O` (stereo not given), the GI50 in the assay on ACHN renal, in the assay on TK-10 renal, in the assay with SW-620 colon, with HT29 colon, with A549 NSCLC and in the assay on LOX IMVI melanoma was above 100 µM each time. The GI50 in the assay on MDA-MB-435, in the assay on NCI-H522 lung, with OVCAR-3 ovarian and with SK-MEL-2 melanoma was above 100 µM each time. In addition, the TGI in the assay on ACHN renal, with TK-10 renal, in the assay with SW-620 colon, with HT29 colon, in the assay on A549 NSCLC and in the assay with LOX IMVI melanoma was above 100 µM throughout. The TGI in the assay on MDA-MB-435, with NCI-H522 lung, in the assay on OVCAR-3 ovarian and in the assay on SK-MEL-2 melanoma was above 100 µM in each case.
